From ChEMBL document CHEMBL3414492, “Enhancing the cellular anti-proliferation activity of pyridazinones as c-met inhibitors using docking analysis” (Eur J Med Chem, 2015)
Activity calls are given as the source filed them. The calls are words filed in the database; no cut-off is given here.

Key:
[1] = Inhibition of cell proliferation of human EBC1 cells after 72 hrs by SRB assay; settings: EBC-1, 72 h
[2] = test system: EBC-1; experiment: (§1) Inhibition of cell proliferation of human EBC1 cells at 10 uM after 72 hrs by SRB assay; assay type: functional
[3] = biological target: T1, Hepatocyte growth factor receptor (Homo sapiens, UniProt P08581); experiment: Inhibition of recombinant c-Met (unknown origin) at 10 uM using poly (Glu,Tyr)4:1 substrate incubated for 60 mins by ELISA method
[4] = Inhibition of cell proliferation of human MKN45 cells after 72 hrs by SRB assay; settings: MKN-45, 72 h
[5] = Inhibition of cell proliferation of human SNU5 cells after 72 hrs by SRB assay; settings: SNU-5, 72 h
[6] = test system: SNU1; experiment: Inhibition of cell proliferation of human SNU1 cells after 72 hrs by SRB assay; settings: SNU1, 72 h
[7] = test system: NCI-H661; experiment: Inhibition of cell proliferation of human NCI-H661 cells after 72 hrs by SRB assay; settings: NCI-H661, 72 h
[8] = biological target: T1, Hepatocyte growth factor receptor; experiment: Inhibition of recombinant c-Met (unknown origin) using poly (Glu,Tyr)4:1 substrate incubated for 60 mins by ELISA method
[9] = test system: EBC-1; settings: Homo sapiens, 1 uM
[10] = biological target: T1, Hepatocyte growth factor receptor; experiment: Inhibition of c-Met Y1234/1235 phosphorylation in human EBC1 cells at 11 nM to 100 nM incubated for 2 hrs by Western blot method; assay type: cell-based
[11] = biological target: T1, Hepatocyte growth factor receptor; experiment: Inhibition of c-Met Y1234/1235 phosphorylation in human EBC1 cells at 0.1 uM incubated for 2 hrs by Western blot method; assay type: cell-based
[12] = biological target: T1, Hepatocyte growth factor receptor; experiment: Inhibition of c-Met in human EBC1 cells assessed as reduction in Akt S473 phosphorylation at 11 nM to 100 nM incubated for 2 hrs by Western blot method; assay type: cell-based
[13] = biological target: T1, Hepatocyte growth factor receptor; experiment: Inhibition of c-Met in human EBC1 cells assessed as reduction in ERK T202/Y204 phosphorylation at 11 nM to 100 nM incubated for 2 hrs by Western blot method; assay type: cell-based
[14] = biological target: Macrophage-stimulating protein receptor (Homo sapiens, UniProt Q04912); experiment: Inhibition of RON (unknown origin)
[15] = biological target: Tyrosine-protein kinase receptor TYRO3 (Homo sapiens, UniProt Q06418); experiment: Inhibition of TYRO3 (unknown origin)
[16] = biological target: Tyrosine-protein kinase receptor UFO (Homo sapiens, UniProt P30530); experiment: Inhibition of AXL (unknown origin)
[17] = biological target: Insulin-like growth factor 1 receptor (Homo sapiens, UniProt P08069); experiment: Inhibition of IGF1R (unknown origin)
[18] = biological target: ALK tyrosine kinase receptor (Homo sapiens, UniProt Q9UM73); experiment: Inhibition of ALK (unknown origin)
[19] = biological target: Fibroblast growth factor receptor 1 (Homo sapiens, UniProt P11362); experiment: Inhibition of FGFR1 (unknown origin)
[20] = biological target: Platelet-derived growth factor receptor beta (Homo sapiens, UniProt P09619); experiment: Inhibition of PDGFRbeta (unknown origin)
[21] = biological target: Vascular endothelial growth factor receptor 1 (Homo sapiens, UniProt P17948); experiment: Inhibition of FLT1 (unknown origin)
[22] = biological target: Epidermal growth factor receptor (Homo sapiens, UniProt P00533); experiment: Inhibition of EGFR (unknown origin)
[23] = biological target: Epidermal growth factor receptor (Homo sapiens, UniProt P00533, L858R/T790M); experiment: Inhibition of EGFR T790M/L858R mutant (unknown origin); assay type: protein assay
[24] = biological target: Receptor tyrosine-protein kinase erbB-4 (Homo sapiens, UniProt Q15303); experiment: Inhibition of ERBB4 (unknown origin)
[25] = biological target: Ephrin type-A receptor 2 (Homo sapiens, UniProt P29317); experiment: Inhibition of EPHA2 (unknown origin)
[26] = test system: A549; experiment: Inhibition of cell proliferation of human A549 cells after 72 hrs by SRB assay; assay type: functional, cell-based; settings: A549, 72 h
[27] = test system: NCI-H358; experiment: Inhibition of cell proliferation of human NCI-H358 cells after 72 hrs by SRB assay; assay type: functional, cell-based; settings: NCI-H358, 72 h
[28] = test system: NCI-H460; experiment: Inhibition of cell proliferation of human NCI-H460 cells after 72 hrs by SRB assay; assay type: functional, cell-based; settings: NCI-H460, 72 h
[29] = test system: NCI-H520; experiment: Inhibition of cell proliferation of human NCI-H520 cells after 72 hrs by SRB assay; assay type: functional, cell-based; settings: NCI-H520, 72 h
[30] = Inhibition of cell proliferation of human PC3 cells after 72 hrs by SRB assay; assay type: functional, cell-based; settings: PC-3, 72 h
[31] = Inhibition of cell proliferation of human SNU16 cells after 72 hrs by SRB assay; assay type: functional, cell-based; settings: SNU-16, 72 h
[32] = test system: A549; experiment: Selectivity index, ratio of IC50 for human A549 cells to IC50 for human MKN45 cells; assay type: functional
[33] = test system: NCI-H358; experiment: Selectivity index, ratio of IC50 for human NCI-H358 cells to IC50 for human MKN45 cells; assay type: functional
[34] = test system: MKN-45; experiment: Selectivity index, ratio of IC50 for human NCI-H661 cells to IC50 for human MKN45 cells; assay type: functional
[35] = test system: NCI-H460; experiment: Selectivity index, ratio of IC50 for human NCI-H460 cells to IC50 for human MKN45 cells; assay type: functional
[36] = test system: MKN-45; experiment: Selectivity index, ratio of IC50 for human NCI-H520 cells to IC50 for human MKN45 cells; assay type: functional
[37] = test system: MKN-45; experiment: Selectivity index, ratio of IC50 for human PC3 cells to IC50 for human MKN45 cells; assay type: functional
[38] = test system: SNU-16; experiment: Selectivity index, ratio of IC50 for human SNU16 cells to IC50 for human MKN45 cells; assay type: functional
[39] = test system: A549; experiment: Selectivity index, ratio of IC50 for human A549 cells to IC50 for human EBC1 cells; assay type: functional
[40] = test system: NCI-H358; experiment: Selectivity index, ratio of IC50 for human NCI-H358 cells to IC50 for human EBC1 cells; assay type: functional
[41] = Selectivity index, ratio of IC50 for human NCI-H661 cells to IC50 for human EBC1 cells; assay type: functional
[42] = test system: NCI-H460; experiment: Selectivity index, ratio of IC50 for human NCI-H460 cells to IC50 for human EBC1 cells; assay type: functional
[43] = Selectivity index, ratio of IC50 for human NCI-H520 cells to IC50 for human EBC1 cells; assay type: functional
[44] = Selectivity index, ratio of IC50 for human PC3 cells to IC50 for human EBC1 cells; assay type: functional
[45] = test system: SNU-16; experiment: Selectivity index, ratio of IC50 for human SNU16 cells to IC50 for human EBC1 cells; assay type: functional
[46] = test system: A549; experiment: Selectivity index, ratio of IC50 for human A549 cells to IC50 for human SNU5 cells; assay type: functional
[47] = test system: NCI-H358; experiment: Selectivity index, ratio of IC50 for human NCI-H358 cells to IC50 for human SNU5 cells; assay type: functional
[48] = test system: SNU-5; experiment: Selectivity index, ratio of IC50 for human NCI-H661 cells to IC50 for human SNU5 cells; assay type: functional
[49] = test system: NCI-H460; experiment: Selectivity index, ratio of IC50 for human NCI-H460 cells to IC50 for human SNU5 cells; assay type: functional
[50] = test system: SNU-5; experiment: Selectivity index, ratio of IC50 for human NCI-H520 cells to IC50 for human SNU5 cells; assay type: functional
[51] = test system: SNU-5; experiment: Selectivity index, ratio of IC50 for human PC3 cells to IC50 for human SNU5 cells; assay type: functional
[52] = test system: SNU-16; experiment: Selectivity index, ratio of IC50 for human SNU16 cells to IC50 for human SNU5 cells; assay type: functional
[53] = as §1; assay type: functional; settings: EBC-1, 72 h
[54] = Inhibition of cell proliferation of human EBC1 cells at 1 uM after 72 hrs by SRB assay; settings: EBC-1, 72 h, read-out: INH

Question: Which IC50 [1] does the source give for `CN1CCN(CCCCOC(=O)Nc2cccc(Cn3nc(-n4ccc5ccc(F)cc54)ccc3=O)c2)CC1` here?
Answer: ≤ 0.1 µM

Question: Which IC50 [1] does the source give for `COCCOc1ccc2c(OCCn3nc(-n4ccc5ccc(F)cc54)ccc3=O)ccnc2c1` here?
Answer: 0.0211 µM

Question: With `CN(C)CCCCOC(=O)Nc1cccc(Cn2nc(Nc3ccccc3C(F)(F)F)ccc2=O)c1` as the molecule, how does the inhibition [2] read?
Answer: inactive

Question: And the inhibition [3]?
Answer: 63.4%

Question: With `CN(C)CCCCOC(=O)Nc1cccc(Cn2nc(Nc3cccc(Cl)c3)ccc2=O)c1` as the molecule, how does the inhibition [2] read?
Answer: inactive

Question: What does the source list for `CN1CCN(CCCOC(=O)Nc2cccc(Cn3nc(-n4ccc5ccc(F)cc54)ccc3=O)c2)CC1`?
Answer: IC50 [1]: ≤ 0.1 µM; IC50 [4]: 0.7 µM; IC50 [5]: 1.2 µM; IC50 [6]: 3.9 µM; IC50 [7]: 1.6 µM

Question: Which IC50 [1] does the source give for `COC(=O)CCCCOC(=O)Nc1cccc(Cn2nc(-n3ccc4ccc(F)cc43)ccc2=O)c1` here?
Answer: > 10 µM

Question: With `COCCCOc1cnc(-c2cccc(Cn3nc(-n4ccc5ccc(F)cc54)ccc3=O)c2)nc1` as the molecule, how does the IC50 [1] read?
Answer: 0.272 µM

Question: With `Cc1ccccc1Nc1ccc(=O)n(Cc2ccc(NC(=O)OCCCCN(C)C)cc2)n1` as the molecule, how does the IC50 [8] read?
Answer: > 10 µM

Question: For `O=C(Nc1cccc(Cn2nc(-n3ccc4ccc(F)cc43)ccc2=O)c1)OCCCCN1CCOCC1`, which IC50 [1] is on record?
Answer: ≤ 1 µM

Question: For `CN(C)CCOC(=O)Nc1cccc(Cn2nc(-n3ccc4ccc(F)cc43)ccc2=O)c1`, which IC50 [1] is on record?
Answer: ≤ 1 µM

Question: With `COc1cnc(-c2cccc(Cn3nc(-n4ccc5ccc(F)cc54)ccc3=O)c2)nc1` as the molecule, how does the IC50 [1] read?
Answer: > 1 µM

Question: And the inhibition [9]?
Answer: inactive

Question: Which inhibition [2] does the source give for `Cc1cccc(Nc2ccc(=O)n(Cc3cccc(NC(=O)OCCCCN(C)C)c3)n2)c1` here?
Answer: inactive

Question: Which IC50 [1] does the source give for `O=c1ccc(-n2ccc3ccc(F)cc32)nn1Cc1cccc(-c2ncc(OCCN3CCOCC3)cn2)c1` here?
Answer: 0.124 µM

Question: What does the source list for `O=c1ccc(-n2ccc3ccc(F)cc32)nn1CCOc1ccnc2cc(OCCCN3CCOCC3)ccc12`?
Answer: IC50 [8]: 0.0042 µM; IC50 [1]: 0.0172 µM; IC50 [4]: 60.7 µM; IC50 [5]: 88.1 µM; IC50 [7]: > 10000 µM; inhibition [10]: Dose-dependent effect; inhibition [11]: Active; inhibition [12]: Active; inhibition [13]: Active; IC50 [14]: > 1 µM; IC50 [15]: > 1 µM; IC50 [16]: > 1 µM; IC50 [17]: > 1 µM; IC50 [18]: > 1 µM; IC50 [19]: > 1 µM; IC50 [20]: > 1 µM; IC50 [21]: > 1 µM; IC50 [22]: > 1 µM; IC50 [23]: > 1 µM; IC50 [24]: > 1 µM; IC50 [25]: > 1 µM; IC50 [26]: > 10 µM; IC50 [27]: > 10 µM; IC50 [28]: > 10 µM; IC50 [29]: > 10 µM; IC50 [30]: > 10 µM; IC50 [31]: > 10 µM; Ratio IC50 [32]: 100; Ratio IC50 [33]: 100; Ratio IC50 [34]: 100; Ratio IC50 [35]: 100; Ratio IC50 [36]: 100; Ratio IC50 [37]: > 100; Ratio IC50 [38]: > 100; Ratio IC50 [39]: 100; Ratio IC50 [40]: 100; Ratio IC50 [41]: 100; Ratio IC50 [42]: 100; Ratio IC50 [43]: 100; Ratio IC50 [44]: 100; Ratio IC50 [45]: > 100; Ratio IC50 [46]: 100; Ratio IC50 [47]: 100; Ratio IC50 [48]: 100; Ratio IC50 [49]: 100; Ratio IC50 [50]: 100; Ratio IC50 [51]: > 100; Ratio IC50 [52]: > 100

Question: With `Cc1ccccc1Nc1ccc(=O)n(Cc2cccc(NC(=O)OCCCCN(C)C)c2)n1` as the molecule, how does the inhibition [2] read?
Answer: inactive

Question: For `CN(C)CCCOC(=O)Nc1cccc(Cn2nc(-n3ccc4ccc(F)cc43)ccc2=O)c1`, which IC50 [1] is on record?
Answer: ≤ 1 µM

Question: What does the source list for `CN(C)CCCCOC(=O)Nc1cccc(Cn2nc(-n3ccc4ccccc43)ccc2=O)c1`?
Answer: inhibition at 10 µM [53]: > 70%; inhibition at 1 µM [54]: < 50%
